Where “and” joins values, the source holds several entries; their conditions need not be identical. Equal values may be shown once. Blank lines part the entries; values can stand above or below the molecule they belong to.
Legend:
porcine pepsin = target: T1, porcine pepsin (Sus scrofa, UniProt P00791); experiment: Peptide stability in simulated gastric fluid (SGF); format: in vitro ADME; settings: for SGF stability, Residual peptide Average / SGF stability, Residual peptide: after 8 h vs 0 h (TIC); for SGF stability, Residual peptide Average: average of R1-R3; for SGF stability, Residual peptide: single replicates R1-R3; for remaining at 8 h: simulated gi fluid, 37 °C, pH 1.2, read-out: Proteolytic stability: SGF (8 h) % remaining
T1 construct: 0.32 g of porcine pepsin (Sigma-Aldrich, P7125) was dissolved under gentle agitation; purchased Sigma-Aldrich P7125
How it was run: (§1)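 Peptide from a 1 mM DMSO stock was added to fluid pre-warmed at 37 °C. SGF was pH 1.2 NaCl with porcine pepsin (0.32 g per 100 ml), and SIF was pH 6.8 potassium phosphate with porcine pancreatin (1 g per 100 ml). Supernatant peptide was quantified by LC–MS, with residual expressed as T1/T0.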

rat α-thrombin = target: T2, rat α-thrombin (Rattus norvegicus, UniProt P18292); experiment: Protease inhibition, Ki for rat α-thrombin (fluorogenic substrate Z-Gly-Gly-Arg-AMC); format: biochemical; settings: replicates R1-R3
T2 construct: rat α-thrombin (Molecular Innovations) were used at final concentrations of 2 nM and 3 nM; purchased Molecular Innovations
How it was run: (§2)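 Ki derived through Cheng–Prusoff from IC50s (four-parameter logistic fit) against activity of peptide-free controls. Product fluorescence was read every 3 min over 30 min at 25 °C, substrate Z-Gly-Gly-Arg-AMC at 50 μM. Enzyme was 2 nM human or 3 nM rat α-thrombin, pH 7.4 buffer.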

human α-thrombin = human α-thrombin (Homo sapiens, UniProt P00734); experiment: Protease inhibition, Ki for human α-thrombin (fluorogenic substrate Z-Gly-Gly-Arg-AMC); format: biochemical; settings: replicates R1-R3
How it was run: as §2

[1] = Metabolic stability in rat liver microsomes (RLMs); settings: rat, microsomes
[2] = Passive artificial membrane permeability (PAMPA); settings: for PAMPA permeability: % permeability: 50 μM, 12–18 h, acceptor concentration relative to equilibrium; for Papp at 50 μM / Permeability% Average / Permeability% R1 / Permeability% R3: PAMPA; for Papp at 50 μM: pH 7.4; for Permeability% Average: average of R1-R3; for Permeability% R1: replicate R1; for Permeability% R1 / Permeability% R3: TIC of top well sample relative to sample at theoretical equilibrium; for Permeability% R3: replicate R3
[3] = Peptide stability in simulated intestinal fluid (SIF); format: in vitro ADME, porcine; settings: simulated gi fluid; 8 h, 37 °C, pH 6.8; read-out: Proteolytic stability: SIF (8 h) % remaining
How it was run: as §1

porcine pancreatin = experiment: as above; format: in vitro ADME; settings: after 8 h vs 0 h (TIC); for SIF stability, Residual peptide Average: average of R1-R3; for SIF stability, Residual peptide: single replicates R1-R3
How it was run: as §1

[4] = peptide 1.33E+02 uM, slope of proteolytic substrate cleavage over time
[5] = CL (ul/min/mg protein) R1, RLM CL, replicate R1
[6] = CL (ul/min/mg protein) R2, RLM CL, replicate R2
[7] = CL (ul/min/mg protein) R3, RLM CL, replicate R3
[8] = Half Life (min) R1, RLM metabolic stability, replicate R1, 0-60 min
[9] = Half Life (min) R2, RLM metabolic stability, replicate R2, 0-60 min
[10] = Half Life (min) R3, RLM metabolic stability, replicate R3, 0-60 min
[11] = Metabolic stability: Half life T1/2 (min), RLMs, mean and SD, three measurements
[12] = Metabolic stability: RLM CL (ul/min/mg), RLMs, mean and SD, three measurements

T1 sequence (P00791 60-385): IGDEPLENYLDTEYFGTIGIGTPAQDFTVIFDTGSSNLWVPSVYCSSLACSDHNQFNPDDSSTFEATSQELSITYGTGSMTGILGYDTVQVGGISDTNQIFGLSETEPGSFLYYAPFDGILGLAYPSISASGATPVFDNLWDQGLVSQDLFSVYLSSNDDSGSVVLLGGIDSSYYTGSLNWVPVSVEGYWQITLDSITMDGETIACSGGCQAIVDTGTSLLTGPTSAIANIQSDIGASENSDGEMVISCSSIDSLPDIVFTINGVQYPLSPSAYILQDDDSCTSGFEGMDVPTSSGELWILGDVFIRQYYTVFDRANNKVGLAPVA

- SGF stability, Residual peptide Average (porcine pepsin): 96.43
- SGF stability, Residual peptide (porcine pepsin): 98.71 and 95.02 and 95.57
- remaining at 8 h (porcine pepsin): 96 ± 2%
- Rat alpha thrombin inhibition, slope normalized to DMSO (rat α-thrombin; [4]): 2.8 and 3.3 and 1.9
- Rat alpha thrombin inhibition, slope normalized to DMSO (rat α-thrombin; peptide 1.67E+01 uM): 7.6 and 6.1 and 7.2
- Rat alpha thrombin inhibition, slope normalized to DMSO (rat α-thrombin; peptide 2.08E+00 uM): 33.9 and 32.6 and 33.7
- Rat alpha thrombin inhibition, slope normalized to DMSO (rat α-thrombin; peptide 3.33E+01 uM): 4.8 and 4.2 and 4.5
- Rat alpha thrombin inhibition, slope normalized to DMSO (rat α-thrombin; peptide 4.17E+00 uM): 21.3 and 20.5 and 20.2
- Rat alpha thrombin inhibition, slope normalized to DMSO (rat α-thrombin; peptide 6.67E+01 uM): 3.3 and 2.6 and 2.7
- Rat alpha thrombin inhibition, slope normalized to DMSO (rat α-thrombin; peptide 8.33E+00 uM): 13.5 and 12.2 and 12.7
- Human alpha thrombin inhibition, slope normalized to DMSO (human α-thrombin; peptide 1.02E-03 uM): 102.8 and 97.7 and 93.9
- Human alpha thrombin inhibition, slope normalized to DMSO (human α-thrombin; peptide 1.04E+00 uM): 77.5 and 70.0 and 74.3
- Human alpha thrombin inhibition, slope normalized to DMSO (human α-thrombin; peptide 1.27E-04 uM): 100.4 and 110.4 and 99.0
- Human alpha thrombin inhibition, slope normalized to DMSO (human α-thrombin; peptide 1.30E-01 uM): 97.9 and 99.8 and 91.2
- Human alpha thrombin inhibition, slope normalized to DMSO (human α-thrombin; [4]): 5.1 and 4.3 and 6.3
- Human alpha thrombin inhibition, slope normalized to DMSO (human α-thrombin; peptide 1.63E-02 uM): 96.1 and 101.1 and 95.8
- Human alpha thrombin inhibition, slope normalized to DMSO (human α-thrombin; peptide 1.67E+01 uM): 20.9 and 21.1 and 17.2
- Human alpha thrombin inhibition, slope normalized to DMSO (human α-thrombin; peptide 2.03E-03 uM): 100.4 and 98.0 and 100.5
- Human alpha thrombin inhibition, slope normalized to DMSO (human α-thrombin; peptide 2.08E+00 uM): 66.4 and 63.2 and 62.8
- Human alpha thrombin inhibition, slope normalized to DMSO (human α-thrombin; peptide 2.54E-04 uM): 104.5 and 97.0 and 96.4
- Human alpha thrombin inhibition, slope normalized to DMSO (human α-thrombin; peptide 2.60E-01 uM): 95.1 and 92.0 and 90.3
- Human alpha thrombin inhibition, slope normalized to DMSO (human α-thrombin; peptide 3.18E-05 uM): 99.7 and 98.9 and 101.2
- Human alpha thrombin inhibition, slope normalized to DMSO (human α-thrombin; peptide 3.26E-02 uM): 99.6 and 98.9 and 96.4
- Human alpha thrombin inhibition, slope normalized to DMSO (human α-thrombin; peptide 3.33E+01 uM): 10.4 and 11.3 and 12.9
- Human alpha thrombin inhibition, slope normalized to DMSO (human α-thrombin; peptide 4.07E-03 uM): 102.1 and 98.1 and 100.5
- Human alpha thrombin inhibition, slope normalized to DMSO (human α-thrombin; peptide 4.17E+00 uM): 49.4 and 48.2 and 42.7
- Human alpha thrombin inhibition, slope normalized to DMSO (human α-thrombin; peptide 5.09E-04 uM): 105.6 and 97.1 and 101.8
- Human alpha thrombin inhibition, slope normalized to DMSO (human α-thrombin; peptide 5.21E-01 uM): 84.4 and 88.3 and 83.4
- Human alpha thrombin inhibition, slope normalized to DMSO (human α-thrombin; peptide 6.36E-05 uM): 104.9 and 95.6
- Human alpha thrombin inhibition, slope normalized to DMSO (human α-thrombin; peptide 6.51E-02 uM): 99.3 and 101.7 and 95.4
- Human alpha thrombin inhibition, slope normalized to DMSO (human α-thrombin; peptide 6.67E+01 uM): 5.8 and 5.7 and 8.8
- Human alpha thrombin inhibition, slope normalized to DMSO (human α-thrombin; peptide 8.14E-03 uM): 101.9 and 98.8 and 103.6
- Human alpha thrombin inhibition, slope normalized to DMSO (human α-thrombin; peptide 8.33E+00 uM): 31.4 and 24.4 and 30.5
- microsomal CLint [1, 5]: 266 µL/min/mg
- microsomal CLint [1, 6]: 255 µL/min/mg
- microsomal CLint [1, 7]: 248 µL/min/mg
- half-life [1, 8]: 5.21 min
- half-life [1, 9]: 5.44 min
- half-life [1, 10]: 5.58 min
- half-life [1, 11]: 5.4 ± 0.2 min
- microsomal CLint [1, 12]: 260 ± 10 µL/min/mg
- PAMPA permeability: % permeability [2]: 16 ± 7%
- Papp at 50 μM [2]: 1.05 ×10⁻⁶ cm/s
- Permeability% Average [2]: 15.5%
- Permeability% R1 [2]: 9.36%
- Permeability% R3 [2]: 23.67%
- remaining at 8 h [3]: 96 ± 9%
- SIF stability, Residual peptide Average (porcine pancreatin): 96.16
- SIF stability, Residual peptide (porcine pancreatin): 94.79 and 87.84 and 105.86
SMILES: O=C1CCSC/C=C/CSCCNC(=O)[C@H](CNC(=O)c2ccc(Cl)s2)NC(=O)[C@H](Cc2ccccn2)N1 [compound 22]

- SGF stability, Residual peptide Average (porcine pepsin): 98.66
- SGF stability, Residual peptide (porcine pepsin): 100.45 and 94.90 and 100.63
- remaining at 8 h (porcine pepsin): 99 ± 3%
- Rat alpha thrombin inhibition, slope normalized to DMSO (rat α-thrombin; [4]): 2.4 and 2.8 and 19.0
- Rat alpha thrombin inhibition, slope normalized to DMSO (rat α-thrombin; peptide 1.67E+01 uM): 12.7 and 12.2 and 32.4
- Rat alpha thrombin inhibition, slope normalized to DMSO (rat α-thrombin; peptide 2.08E+00 uM): 50.5 and 50.4 and 69.3
- Rat alpha thrombin inhibition, slope normalized to DMSO (rat α-thrombin; peptide 3.33E+01 uM): 7.4 and 6.9 and 24.6
- Rat alpha thrombin inhibition, slope normalized to DMSO (rat α-thrombin; peptide 4.17E+00 uM): 35.4 and 36.2 and 53.3
- Rat alpha thrombin inhibition, slope normalized to DMSO (rat α-thrombin; peptide 6.67E+01 uM): 5.7 and 4.4 and 22.7
- Rat alpha thrombin inhibition, slope normalized to DMSO (rat α-thrombin; peptide 8.33E+00 uM): 23.3 and 24.4 and 38.9
- Human alpha thrombin inhibition, slope normalized to DMSO (human α-thrombin; peptide 1.02E-03 uM): 91.9 and 90.1 and 93.2
- Human alpha thrombin inhibition, slope normalized to DMSO (human α-thrombin; peptide 1.04E+00 uM): 79.8 and 81.1 and 79.3
- Human alpha thrombin inhibition, slope normalized to DMSO (human α-thrombin; peptide 1.27E-04 uM): 96.4 and 91.3 and 88.2
- Human alpha thrombin inhibition, slope normalized to DMSO (human α-thrombin; peptide 1.30E-01 uM): 96.0 and 91.0 and 92.0
- Human alpha thrombin inhibition, slope normalized to DMSO (human α-thrombin; [4]): 8.4 and 8.5 and -2.6
- Human alpha thrombin inhibition, slope normalized to DMSO (human α-thrombin; peptide 1.63E-02 uM): 97.2 and 84.3 and 96.8
- Human alpha thrombin inhibition, slope normalized to DMSO (human α-thrombin; peptide 1.67E+01 uM): 30.4 and 33.6 and 42.3
- Human alpha thrombin inhibition, slope normalized to DMSO (human α-thrombin; peptide 2.03E-03 uM): 97.8 and 93.0 and 96.6
- Human alpha thrombin inhibition, slope normalized to DMSO (human α-thrombin; peptide 2.08E+00 uM): 73.0 and 70.9 and 73.9
- Human alpha thrombin inhibition, slope normalized to DMSO (human α-thrombin; peptide 2.54E-04 uM): 99.0 and 94.8 and 97.2
- Human alpha thrombin inhibition, slope normalized to DMSO (human α-thrombin; peptide 2.60E-01 uM): 91.4 and 88.4 and 89.4
- Human alpha thrombin inhibition, slope normalized to DMSO (human α-thrombin; peptide 3.18E-05 uM): 91.8 and 117.4 and 98.4
- Human alpha thrombin inhibition, slope normalized to DMSO (human α-thrombin; peptide 3.26E-02 uM): 94.8 and 91.6 and 96.2
- Human alpha thrombin inhibition, slope normalized to DMSO (human α-thrombin; peptide 3.33E+01 uM): 18.0 and 18.8 and 20.4
- Human alpha thrombin inhibition, slope normalized to DMSO (human α-thrombin; peptide 4.07E-03 uM): 93.4 and 91.5 and 94.8
- Human alpha thrombin inhibition, slope normalized to DMSO (human α-thrombin; peptide 4.17E+00 uM): 59.5 and 58.3 and 61.9
- Human alpha thrombin inhibition, slope normalized to DMSO (human α-thrombin; peptide 5.09E-04 uM): 97.5 and 92.8 and 99.8
- Human alpha thrombin inhibition, slope normalized to DMSO (human α-thrombin; peptide 5.21E-01 uM): 87.6 and 85.1 and 86.8
- Human alpha thrombin inhibition, slope normalized to DMSO (human α-thrombin; peptide 6.36E-05 uM): 100.5 and 90.1 and 98.6
- Human alpha thrombin inhibition, slope normalized to DMSO (human α-thrombin; peptide 6.51E-02 uM): 92.5 and 91.3 and 93.7
- Human alpha thrombin inhibition, slope normalized to DMSO (human α-thrombin; peptide 6.67E+01 uM): 11.3 and 18.5 and 12.0
- Human alpha thrombin inhibition, slope normalized to DMSO (human α-thrombin; peptide 8.14E-03 uM): 94.9 and 92.1 and 95.9
- Human alpha thrombin inhibition, slope normalized to DMSO (human α-thrombin; peptide 8.33E+00 uM): 50.4 and 48.8 and 50.8
- microsomal CLint [1, 5]: 73.8 µL/min/mg
- microsomal CLint [1, 6]: 70.2 µL/min/mg
- microsomal CLint [1, 7]: 77.1 µL/min/mg
- half-life [1, 8]: 18.8 min
- half-life [1, 9]: 19.7 min
- half-life [1, 10]: 18 min
- half-life [1, 11]: 18.8 ± 0.7 min
- microsomal CLint [1, 12]: 74 ± 3 µL/min/mg
- PAMPA permeability: % permeability [2]: 63 ± 5%
- Papp at 50 μM [2]: 6.46 ×10⁻⁶ cm/s
- Permeability% Average [2]: 62.6%
- Permeability% R1 [2]: 59.23%
- Permeability% R3 [2]: 59.76%
- remaining at 8 h [3]: 91 ± 9%
- SIF stability, Residual peptide Average (porcine pancreatin): 91.31
- SIF stability, Residual peptide (porcine pancreatin): 90.99 and 82.41 and 100.52
SMILES: O=C1NCCSCc2cccc(n2)CSCCC(=O)N2CCC[C@H]2C(=O)N2CCN(C(=O)c3ccc(Cl)s3)CC12 (some centres unmarked) [compound 23]
